Test results as given in US20090239845A1, “PYRAZOLE COMPOUNDS AS PROSTAGLANDIN RECEPTORS LIGANDS” (priority 2005, published 2009).
Structures can show the parent of a compound that is named as a salt.

molecular target: T1, human EP1 receptor (Homo sapiens, UniProt P34995); test: human EP1 calcium mobilisation assay; assay type: cell-based; conditions: negative logarithm10 of the antagonist dissociation constant; CHO-K1 cells, PGE2; free bases or sodium salts; averages of a number of experiments; read-out: functional pKi value (converted)
T1 construct: expressed in transfected cells; host or cells: CHO-K1
T1 sequence (P34995 1-402): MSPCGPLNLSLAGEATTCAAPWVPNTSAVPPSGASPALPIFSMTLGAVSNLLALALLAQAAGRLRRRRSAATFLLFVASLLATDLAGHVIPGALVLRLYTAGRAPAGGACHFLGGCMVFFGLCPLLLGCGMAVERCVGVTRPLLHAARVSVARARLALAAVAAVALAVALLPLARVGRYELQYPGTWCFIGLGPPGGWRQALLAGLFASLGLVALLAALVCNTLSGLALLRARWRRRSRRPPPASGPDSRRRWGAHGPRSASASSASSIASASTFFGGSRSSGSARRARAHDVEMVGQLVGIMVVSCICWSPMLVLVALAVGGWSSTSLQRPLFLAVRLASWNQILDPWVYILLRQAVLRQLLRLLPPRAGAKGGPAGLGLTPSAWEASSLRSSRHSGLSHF

Row | SMILES | Ki [nM]
1 | Cc1cc(NC(=O)OC(C)C)nn1Cc1cc(Br)ccc1OCc1ccc(Cl)cc1Cl [Example 9, 1-Methylethyl {1-[(5-bromo-2-{[(2,4-dichlorophenyl)methyl]oxy}phenyl)methyl]-5-methyl-1H-pyrazol-3-yl]carbamate] | > 1000
2 | Cc1cc(NC(=O)Cc2ccccc2)nn1Cc1cc(Cl)ccc1OCc1cc(F)c(F)cc1F [Example 126, N-{1-[(5-Chloro-2-{[(2,4,5-trifluorophenyl)methyl]oxy}phenyl)methyl]-5-methyl-1H-pyrazol-3-yl}-2-phenylacetamide] | > 1000
3 | Cc1cc(NC(=O)OC(C)(C)C)nn1Cc1cc(Br)ccc1OCc1ccc(F)cc1F [Example 6, 1,1-Dimethylethyl {1-[(5-bromo-2-{[(2,4-difluorophenyl)methyl]oxy}phenyl)methyl]-5-methyl-1H-pyrazol-3-yl}carbamate] | > 1000

molecular target: T2, human prostanoid EP1 receptor (Homo sapiens, UniProt P34995); test: Binding assay for the human prostanoid EP1 receptor (competition with [3H]-PGE2); conditions: negative logarithm10 of the IC50; competition with [3H]-PGE2, CHO-K1 cell membranes; averages of a number of experiments; read-out: pIC50 value (converted)
T2 construct: expressed in transfected cells; host or cells: CHO-K1 (membrane fraction)
T2 sequence (P34995 1-402): T1 sequence (P34995 1-402)
Description: Competition assay using [^3H]-PGE2.
Compound potencies are determined using a radioligand binding assay. In this assay compound potencies are determined from their ability to compete with tritiated prostaglandin E2 ([^3H]-PGE2) for binding to the human EP1 receptor.
This assay utilises Chinese hamster ovary-K1 (CHO-K1) cells into which a stable vector containing the EP1 cDNA has previously been transfected. Cells are cultured in suitable flasks containing culture medium such as DMEM:F-12 supplemented with 10% v/v foetal calf serum, 2 mM L-glutamine, 0.25 mg/ml geneticin, 10 μg/ml puromycin and 10 μM indomethacin.
Cells are detached from the culture flasks by incubation in calcium and magnesium free phosphate buffered saline containing 1 mM disodium ethylenediaminetetraacetic acid (Na2EDTA) and 10 μM indomethacin for 5 min. The cells are isolated by centrifugation at 250×g for 5mins and suspended in an ice cold buffer such as 50 mM Tris, 1 mM Na2EDTA, 140 mM NaCl, 10 μM indomethacin (pH 7.4). The cells are homogenised using a Polytron tissue disrupter (2×10s burst at full setting), centrifuged at 48,000×g for 20mins and the pellet containing the membrane fraction is washed (optional) three times by suspension and centrifugation at 48,000×g for 20mins. The final membrane pellet is suspended in an assay buffer such as 10 mM 2-[N-morpholino]ethanesulphonic acid, 1 mM Na2EDTA, 10 mM MgCl2 (pH 6). Aliquots are frozen at −80° C. until required.
For the binding assay the cell membranes, competing compounds and [^3H]-PGE2 (3 nM final assay concentration) are incubated in a final volume of 100 μl for 30 min at 30° C. All reagents are prepared in assay buffer. Reactions are terminated by rapid vacuum filtration over GF/B filters using a Brandell cell harvester. The filters are washed with ice cold assay buffer, dried and the radioactivity retained on the filters is measured by liquid scintillation counting in Packard TopCount scintillation counter.
The data are analysed using non linear curve fitting techniques to determine the concentration of compound producing 50% inhibition of specific binding (IC50).

Row | SMILES | IC50 [nM]
4 | Cc1cc(NC(=O)OC(C)C)nn1Cc1cc(Br)ccc1OCc1ccc(Cl)cc1Cl [Example 9, 1-Methylethyl {1-[(5-bromo-2-{[(2,4-dichlorophenyl)methyl]oxy}phenyl)methyl]-5-methyl-1H-pyrazol-3-yl]carbamate] | ≤ 10
5 | Cc1cc(NC(=O)Cc2ccccc2)nn1Cc1cc(Cl)ccc1OCc1cc(F)c(F)cc1F [Example 126, N-{1-[(5-Chloro-2-{[(2,4,5-trifluorophenyl)methyl]oxy}phenyl)methyl]-5-methyl-1H-pyrazol-3-yl}-2-phenylacetamide] | ≤ 10
6 | Cc1cc(C(=O)Nc2ccc(CN3CCCC3)cc2)nn1Cc1cc(Cl)ccc1OCC(C)C [Example 396, 1-({5-Chloro-2-[(2-methylpropyl)oxy]phenyl}methyl)-5-methyl-N-[4-(1-pyrrolidinylmethyl)phenyl]-1H-pyrazole-3-carboxamide hydrochloride] | ≤ 10
7 | Cc1cc(NC(=O)CC(C)C)nn1Cc1cc(Cl)ccc1OCC(C)C [Example 76, N-[1-({5-Chloro-2-[(2-methylpropyl)oxy]phenyl}methyl)-5-methyl-1H-pyrazol-3-yl]-3-methylbutanamide] | ≤ 10
8 | Cc1cc(NC(=O)OC(C)(C)C)nn1Cc1cc(Br)ccc1OCc1ccc(Cl)cc1Cl [Example 8, 1,1-Dimethylethyl {1-[(5-bromo-2-{[(2,4-dichlorophenyl)methyl]oxy}phenyl)methyl]-5-methyl-1H-pyrazol-3-yl}carbamate] | ≤ 10
9 | CCNCc1ccc(NC(=O)c2cc(C)n(Cc3cc(Cl)ccc3OCC(C)C)n2)cc1 [Example 393, 1-({5-Chloro-2-[(2-methylpropyl}oxy]phenyl}methyl)-N-{4-[(ethylamino)methyl]phenyl}-5-methyl-1H-pyrazole-3-carboxamide hydrochloride] | ≤ 10
10 | Cc1cc(NC(=O)CC(C)(C)C)nn1Cc1cc(Cl)ccc1OCc1ccc(Cl)cc1 [Example 137, N-{1-[(5-Chloro-2-{[(4-chlorophenyl)methyl]oxy}phenyl)methyl]-5-methyl-1H-pyraozl-3-yl}-3,3-dimethylbutanamide] | ≤ 10
11 | Cc1cc(C(=O)Nc2ccc(CN3CCCCC3)cc2)nn1Cc1cc(Cl)ccc1OCC(C)C [Example 397, 1-({5-Chloro-2-[(2-methylpropyl)oxy]phenyl}methyl)-5-methyl-N-[4-(1-piperidinylmethyl)phenyl]-1H-pyrazole-3-carboxamide hydrochloride] | ≤ 10
12 | Cc1c(-c2nc3cc(CN4CCN(C)CC4)ccc3[nH]2)cnn1Cc1cc(Cl)ccc1OCC(C)C [Example 381, 2-[1-({5-Chloro-2-[(2-methylpropyl)oxy]phenyl}meth-yl)-5-methyl-1H-pyrazol-4-yl]-5-[(4-methyl-1-piperazinyl)methyl]-1H-benzimidazole trihydrochloride] | ≤ 10
13 | Cc1cc(-c2nnn[nH]2)nn1Cc1cc(Cl)ccc1OCc1ccccc1 [Example 353, 5-[1-({5-Chloro-2-[(phenylmethyl)oxy]phenyl}methyl)-5-methyl-1H-pyrazol-3-yl]-1H-tetrazole] | ≤ 10
14 | Cc1cc(-c2nc3cc(CO)ccc3[nH]2)nn1Cc1cc(Cl)ccc1OCC(C)C [Example 377, {2-[1-({5-Chloro-2-[(2-methylpropyl)oxy]phenyl}methyl)-5-methyl-1H-pyrazol-3-yl]-1H-benzimidazol-5-yl}methanol hydrochloride] | ≤ 10
15 | Cc1cc(NC(=O)OC(C)C)nn1Cc1cc(Br)ccc1OCc1ccc(F)cc1F [Example 7, 1-Methylethyl {1-[(5-bromo-2-{[(2,4-difluorophenyl)methyl]oxy}phenyl)methyl]-5-methyl-1H-pyrazol-3-yl}carbamate] | ≤ 10
16 | Cc1cc(NC(=O)CC(C)(C)C)nn1Cc1cc(Cl)ccc1OCc1ccc(F)cc1Cl [Example 133, N-{1-[(5-Chloro-2-{[(2-chloro-4-fluorophenyl)methyl]oxy}phenyl)methyl]-5-methyl-1H-pyrazol-3-yl}-3,3-dimethylbutanamide] | ≤ 10
17 | Cc1cc(C(=O)Nc2ccc(CN(C)C)cc2)nn1Cc1cc(Cl)ccc1OCc1ccccc1 [Example 346, 1-({5-Chloro-2-[(phenylmethyl)oxy]phenyl}methyl)-N-{4-[(dimethylamino)methyl]phe-nyl}-5-methyl-1H-pyrazole-3-carboxamide hydrochloride] | ≤ 10
18 | Cc1cc(NC(=O)OC(C)(C)C)nn1Cc1cc(Br)ccc1OCc1ccc(F)cc1F [Example 6, 1,1-Dimethylethyl {1-[(5-bromo-2-{[(2,4-difluorophenyl)methyl]oxy}phenyl)methyl]-5-methyl-1H-pyrazol-3-yl}carbamate] | ≤ 10
19 | Cc1cc(-c2nc3ccc(N4CCN(C)CC4)cc3[nH]2)nn1Cc1cc(Cl)ccc1OCC(C)C [Example 375, 2-[1-({5-Chloro-2-[(2-methylpropyl)oxy]phenyl}methyl)-5-methyl-1H-pyrazol-3-yl]-5-(4-methyl-1-piperazinyl)-1H-benzimidazole trihydrochloride] | ≤ 10
20 | Cc1cc(C(=O)Nc2ccc(CN3CCOCC3)cc2)nn1Cc1cc(Cl)ccc1OCC(C)C [Example 398, 1-({5-Chloro-2-[(2-methylpropyl)oxy]phenyl}methyl)-5-methyl-N-[4-(4-morpholinylmethyl)phenyl]-1H-pyrazole-3-carboxamide hydrochloride] | ≤ 10
21 | Cc1cc(NC(=O)CC2CCCCC2)nn1Cc1cc(Cl)ccc1OCc1ccccc1 [Example 154, N-[1-({5-Chloro-2-[(phenylmethyl)oxy]phenyl}methyl)-5-methyl-1H-pyrazol-3-yl]-2-cyclohexylacetamide] | ≤ 10
22 | Cc1cc(-c2nc3ncccc3[nH]2)nn1Cc1cc(Cl)ccc1OCC(C)C [Example 372, 2-[1-({5-Chloro-2-[(2-methylpropyl)oxy]phenyl}methyl)-5-methyl-1H-pyrazol-3-yl]-1H-imidazo[4,5-b]pyridine hydrochloride] | ≤ 10
23 | Cc1cc(NC(=O)OC2CCOCC2)nn1Cc1cc(Br)ccc1OCc1ccc(Cl)cc1Cl [Example 30, Tetrahydro-2H-pyran-4-yl {1-[(5-bromo-2-{[(2,4-dichlorophenyl)methyl]oxy}phe-nyl)methyl]-5-methyl-1H-pyrazol-3-yl}carbamate] | ≤ 10
